Source: paper PMC8305664, “Knockdown of a β-Adrenergic-Like Octopamine Receptor Affects Locomotion and Reproduction of Tribolium castaneum” (International Journal of Molecular Sciences, 2021)

Molecular target: T1, TcOctβ2R (β-adrenergic-like octopamine receptor) (Tribolium castaneum, UniProt N1NSX1)
T1 construct: full ORF (411 amino acids), pcDNA3.1(+), transiently expressed in HEK 293 cells
T1 sequence (N1NSX1 1-411): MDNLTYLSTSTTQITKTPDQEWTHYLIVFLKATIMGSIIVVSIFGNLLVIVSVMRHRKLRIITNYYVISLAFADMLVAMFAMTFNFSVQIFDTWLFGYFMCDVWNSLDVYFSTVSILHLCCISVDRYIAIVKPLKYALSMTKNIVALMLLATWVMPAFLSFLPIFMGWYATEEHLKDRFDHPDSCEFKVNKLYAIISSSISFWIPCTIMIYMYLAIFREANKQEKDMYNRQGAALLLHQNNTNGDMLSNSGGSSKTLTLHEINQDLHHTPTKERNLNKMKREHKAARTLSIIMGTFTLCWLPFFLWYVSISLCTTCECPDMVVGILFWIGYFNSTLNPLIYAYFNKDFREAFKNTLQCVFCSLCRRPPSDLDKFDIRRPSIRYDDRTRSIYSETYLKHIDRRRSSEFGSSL
Assay: GloSensor cAMP assay in HEK […] cells expressing the receptor (agonist)
Type: cell-based

| EC50 [nM] | Compound |
| --- | --- |
| 200 | NCCc1ccc(O)cc1 [tyramine] |
| 7.1 | c1ccc2c(CC3=NCCN3)cccc2c1 [naphazoline] |
| 28 | NCC(O)c1ccc(O)cc1 (stereo not drawn) [octopamine] |
